T/C data for 14 compounds are collected here from PubChem BioAssay AID330 (DTP/NCI, 2004).

The experiment relates to P388 leukemia ip, CD2F1 mice, survival T/C. Put plainly: NCI In Vivo Anticancer Drug Screen. Data for tumor model P388 Leukemia (intraperitoneal) in CD2F1 (CDF1) mice. The following applies: endpoint: median survival time, higher = longer survival. Put shortly: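 Mice carrying the transplanted tumor received test compound or vehicle. Survival was recorded in each group, and the value is the treated-group measurement divided by that of the vehicle-treated control group.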

[1] abbreviates: dose: 60.0 mg/kg/injection, schedule: Q01DX005 (ip), vehicle: saline with Tween-80.
Setting [2] is: dose: 120.0 mg/kg/injection, schedule: Q01DX005 (ip), vehicle: saline with Tween-80.
[3] abbreviates: dose: 240.0 mg/kg/injection, schedule: Q01DX005 (ip), vehicle: saline with Tween-80.
Where [4] appears, read: dose: 25.0 mg/kg/injection, schedule: Q01DX005 (ip), vehicle: Klucel (hydroxypropylcellulose) (HPC).
Setting [5] is: dose: 50.0 mg/kg/injection, schedule: Q01DX005 (ip), vehicle: Klucel (hydroxypropylcellulose) (HPC).

Values joined by “and” are separate entries in the source; they are usually repeats but may differ in a detail not shown here. Equal entries are not always repeated. Inconclusive results and toxic doses are left out.

Turning to `CC1CCC(C(C)(C)c2ccccc2)C(OC(=O)C2C3CCC=C3C3CC(C)(C)CC32)C1` (stereo not given), the T/C by setting is: (dose: 21.25 mg/kg/injection, schedule: Q01DX005 (ip), vehicle: saline with Tween-80) 99 % of control; (dose: 42.5 mg/kg/injection, schedule: Q01DX005 (ip), vehicle: saline with Tween-80) 96 % of control; (dose: 85.0 mg/kg/injection, schedule: Q01DX005 (ip), vehicle: saline with Tween-80) 100 % of control.

In the case of `Cc1ccc2c(c1)C1(SC(C)C(=O)N1c1ccc(F)cc1)C(=O)N2` (stereo not given), the T/C is 89 % of control under setting [1], 90 % of control under setting [2] and 87 % of control under setting [3].

With `Cc1ccc(NC(=O)CCCC(=O)C(C#N)c2ccccc2C)cc1C` (stereo not given), the T/C was 113 % of control under setting [1], 103 % of control under setting [2] and 102 % of control under setting [3].

With `COc1ccc(/C=N\N=C(/[O-])c2ccccc2O)cc1.COc1ccc(/C=N\N=C(/[O-])c2ccccc2O)cc1.[Mn+2].[OH3+].[OH3+]`, the T/C runs as follows: (dose: 50.0 mg/kg/injection, schedule: Q04DX002 (ip), vehicle: saline with Tween-80) 107 % of control; (dose: 100.0 mg/kg/injection, schedule: Q04DX002 (ip), vehicle: saline with Tween-80) 108 % of control; (dose: 200.0 mg/kg/injection, schedule: Q04DX002 (ip), vehicle: saline with Tween-80) 114 % of control.

As for `NCC(=O)NCC(=O)NC(CCCN=C(N)N)C(=O)O` (stereo not given), the T/C by setting is: (dose: 50.0 mg/kg/injection, schedule: Q01DX005 (ip), vehicle: saline) 100 % of control; (dose: 100.0 mg/kg/injection, schedule: Q01DX005 (ip), vehicle: saline) 103 % of control; (dose: 200.0 mg/kg/injection, schedule: Q01DX005 (ip), vehicle: saline) 99 % of control.

`Cc1cc(=O)[nH]c2c(C)cccc12`: the T/C runs as follows: (dose: 100.0 mg/kg/injection, schedule: Q04DX003 (ip), vehicle: Klucel (hydroxypropylcellulose) (HPC)) 96 % of control; (dose: 200.0 mg/kg/injection, schedule: Q04DX003 (ip), vehicle: Klucel (hydroxypropylcellulose) (HPC)) 98 % of control; (dose: 400.0 mg/kg/injection, schedule: Q04DX003 (ip), vehicle: Klucel (hydroxypropylcellulose) (HPC)) 99 % of control.

In the case of `O=C1CCC(Cc2ccccc2Br)C(=O)N1` (stereo not given), the T/C reads like this: under setting [1], 99 % of control; under setting [2], 107 % of control; under setting [3], 102 % of control.

As for `Cc1ccc(S(=O)(=O)N/N=C/c2c(-c3ccc(Cl)cc3)nc3n2CCS3)cc1`, the T/C runs as follows: (dose: 100.0 mg/kg/injection, schedule: Q01DX001 (ip), vehicle: Klucel (hydroxypropylcellulose) (HPC)) 100 % of control; (dose: 200.0 mg/kg/injection, schedule: Q01DX001 (ip), vehicle: Klucel (hydroxypropylcellulose) (HPC)) 92 % of control; (dose: 400.0 mg/kg/injection, schedule: Q01DX001 (ip), vehicle: Klucel (hydroxypropylcellulose) (HPC)) 94 % of control.

As for `N=c1ccn2c(n1)OC1C(O)C(CO)OC12` (stereo not given), the T/C is 200 % of control (dose: 50.0 mg/kg/injection, schedule: Q01DX009 (ip), vehicle: saline); 156 % of control (dose: 75.0 mg/kg/injection, schedule: Q01DX009 (ip), vehicle: saline); 181 % of control (dose: 100.0 mg/kg/injection, schedule: Q01DX009 (ip), vehicle: saline sonified); 222 % of control (dose: 100.0 mg/kg/injection, schedule: Q01DX009 (ip), vehicle: saline); 175 % of control (dose: 150.0 mg/kg/injection, schedule: Q01DX009 (ip), vehicle: saline); 150 % of control (dose: 160.0 mg/kg/injection, schedule: Q01DX005 (ip), vehicle: saline). The T/C reads like this: (dose: 160.0 mg/kg/injection, schedule: Q01DX005 (iv), vehicle: saline) 161 % of control; (dose: 200.0 mg/kg/injection, schedule: Q01DX009 (ip), vehicle: saline sonified) 168 % of control; (dose: 200.0 mg/kg/injection, schedule: Q01DX009 (ip), vehicle: saline) 272 % of control; (dose: 300.0 mg/kg/injection, schedule: Q01DX009 (ip), vehicle: saline) 200 % of control; (dose: 320.0 mg/kg/injection, schedule: Q01DX005 (ip), vehicle: saline) 170 % of control; (dose: 320.0 mg/kg/injection, schedule: Q01DX005 (iv), vehicle: saline) 184 % of control. The T/C was 181 % of control (dose: 400.0 mg/kg/injection, schedule: Q01DX009 (ip), vehicle: saline sonified); 272 % of control (dose: 400.0 mg/kg/injection, schedule: Q01DX009 (ip), vehicle: saline); 91 % of control (dose: 600.0 mg/kg/injection, schedule: Q01DX009 (ip), vehicle: saline); 203 % of control (dose: 640.0 mg/kg/injection, schedule: Q01DX005 (ip), vehicle: saline); 194 % of control (dose: 640.0 mg/kg/injection, schedule: Q01DX005 (iv), vehicle: saline); 181 % of control (dose: 800.0 mg/kg/injection, schedule: Q01DX009 (ip), vehicle: saline sonified).

As for `CC(C)(C)c1ccc(OCC(COc2ccc(C(C)(C)C)cc2)(COc2ccc(C(C)(C)C)cc2)COc2ccc(C(C)(C)C)cc2)cc1`, the T/C (dose: 7.5 mg/kg/injection, schedule: Q01DX009 (ip), vehicle: saline with Tween-80) is 98 % of control; the T/C (dose: 15.0 mg/kg/injection, schedule: Q01DX009 (ip), vehicle: saline with Tween-80) was 95 % of control; the T/C (dose: 30.0 mg/kg/injection, schedule: Q01DX009 (ip), vehicle: saline with Tween-80) is 93 % of control.

`FC(F)(F)c1ccccc1Nc1nnc(-c2ccc(Cl)cc2Cl)o1`: the T/C by setting is: under setting [1], 100 % of control; under setting [2], 96 % of control; under setting [3], 87 % of control.

For `COc1cc(OC)cc(N2C(N)=NC(N)=NC2(C)C)c1`, the T/C was 104 % of control (dose: 12.5 mg/kg/injection, schedule: Q01DX005 (ip), vehicle: Klucel (hydroxypropylcellulose) (HPC)); 105 % of control under setting [4]; 102 % of control and 107 % of control under setting [5].

Consider `C=C1CC2(CC(C(C)C)CCC2C)OC1=O` (stereo not given), for which the T/C is, setting by setting: (dose: 100.0 mg/kg/injection, schedule: Q01DX001 (ip), vehicle: saline) 105 % of control; (dose: 200.0 mg/kg/injection, schedule: Q01DX001 (ip), vehicle: saline) 100 % of control; (dose: 400.0 mg/kg/injection, schedule: Q01DX001 (ip), vehicle: saline) 105 % of control.

On to `O=C1c2c(O)cccc2C(C2OC(CO)C(O)C(O)C2O)c2cc(CO)cc(O)c21` (stereo not given), for which the T/C by setting is: under setting [4], 101 % of control; (dose: 50.0 mg/kg/injection, schedule: Q01DX001 (ip), vehicle: water) 104 % of control; under setting [5], 104 % of control and 107 % of control; (dose: 100.0 mg/kg/injection, schedule: Q01DX001 (ip), vehicle: water) 104 % of control; (dose: 100.0 mg/kg/injection, schedule: Q01DX005 (ip), vehicle: Klucel (hydroxypropylcellulose) (HPC)) 117 % of control and 110 % of control; (dose: 200.0 mg/kg/injection, schedule: Q01DX001 (ip), vehicle: water) 104 % of control.
